These results are taken from patent US11427556B2, “Urea derivatives as inhibitors of ASK1” (Hepagene Therapeutics (HK) Limited, priority 2017, dated 2022).

The EC50 is the concentration giving half of the maximal effect.

The target in this assay is T1, Recombinant human ASK1 kinase (Homo sapiens, UniProt Q99683).
T1 construct: purchased Invitrogen Inc
T1 sequence (Q99683 1-1374): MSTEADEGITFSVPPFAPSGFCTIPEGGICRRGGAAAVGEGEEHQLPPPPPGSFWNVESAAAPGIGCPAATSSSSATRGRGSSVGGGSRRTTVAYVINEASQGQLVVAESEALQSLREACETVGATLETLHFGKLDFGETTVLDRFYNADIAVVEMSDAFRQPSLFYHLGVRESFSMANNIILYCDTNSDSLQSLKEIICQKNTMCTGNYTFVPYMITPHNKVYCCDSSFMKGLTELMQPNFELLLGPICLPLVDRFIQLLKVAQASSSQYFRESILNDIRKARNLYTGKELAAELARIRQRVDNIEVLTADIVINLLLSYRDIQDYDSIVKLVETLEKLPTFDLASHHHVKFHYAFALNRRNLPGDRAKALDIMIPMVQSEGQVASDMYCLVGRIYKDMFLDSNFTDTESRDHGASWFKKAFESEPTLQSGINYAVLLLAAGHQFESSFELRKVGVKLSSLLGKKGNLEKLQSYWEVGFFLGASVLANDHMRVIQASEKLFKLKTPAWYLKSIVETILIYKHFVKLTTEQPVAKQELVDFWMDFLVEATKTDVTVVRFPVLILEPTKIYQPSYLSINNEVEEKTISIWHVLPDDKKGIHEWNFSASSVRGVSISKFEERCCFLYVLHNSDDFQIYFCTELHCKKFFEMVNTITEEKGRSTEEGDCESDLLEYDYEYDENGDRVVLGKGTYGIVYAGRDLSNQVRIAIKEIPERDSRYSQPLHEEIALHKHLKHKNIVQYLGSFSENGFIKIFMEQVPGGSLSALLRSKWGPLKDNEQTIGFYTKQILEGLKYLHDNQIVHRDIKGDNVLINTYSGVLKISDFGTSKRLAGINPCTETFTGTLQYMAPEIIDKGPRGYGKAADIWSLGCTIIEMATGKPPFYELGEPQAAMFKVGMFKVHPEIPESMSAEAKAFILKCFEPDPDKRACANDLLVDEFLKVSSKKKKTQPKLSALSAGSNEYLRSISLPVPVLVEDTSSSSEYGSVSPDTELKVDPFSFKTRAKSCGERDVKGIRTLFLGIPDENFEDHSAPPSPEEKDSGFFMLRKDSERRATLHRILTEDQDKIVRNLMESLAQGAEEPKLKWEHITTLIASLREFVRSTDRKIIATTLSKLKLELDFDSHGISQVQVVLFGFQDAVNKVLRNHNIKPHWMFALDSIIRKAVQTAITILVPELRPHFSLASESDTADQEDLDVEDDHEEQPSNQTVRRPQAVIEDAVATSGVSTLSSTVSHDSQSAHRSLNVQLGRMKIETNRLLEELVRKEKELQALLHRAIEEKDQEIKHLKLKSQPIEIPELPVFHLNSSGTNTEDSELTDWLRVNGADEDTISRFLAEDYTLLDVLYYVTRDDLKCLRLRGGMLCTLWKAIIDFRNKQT
Description: ASK1 kinase HTRF assay (HTRF KinEASE-STK, phosphorylation of biotinylated peptide substrate). In kind it is biochemical. The conditions noted are these: 3 nM ASK1 kinase, 1 uM STK-substrate-biotin, HTRF detection; read-out: EC50. The method, boiled down:
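HTRF KinEASE-STK read-out of biotinylated peptide phosphorylation. Compound incubated with 3 nM ASK1 and 1 uM STK-substrate-biotin in kinase buffer containing 5 mM MgCl2 and 1 mM DTT.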
For orientation: In TR-FRET formats the signal depends on donor and acceptor labels being close together.
Turning to `CC(C)n1cnnc1-c1cccc(NC(=O)Nc2cc(C(=O)Nc3cccnc3)ccn2)n1` [Compound I-162], the concentration giving a half-maximal response (EC50) was < 50 nM.
Regarding `CC(C)n1cnnc1-c1cccc(NC(=O)Nc2cc(C(=O)Nc3ccncc3)ccn2)n1` [Compound I-163], the concentration giving a half-maximal response (EC50) is < 50 nM.
As for `C[C@H](CO)n1cnnc1-c1cccc(NC(=O)Nc2cc(C(=O)Nc3ccncc3)ccn2)n1` [Compound I-164], the concentration for a half-maximal effect (EC50) was < 50 nM.
`CC(C)n1cnnc1-c1cccc(NC(=O)Nc2ccc(N3CCCC3)cn2)n1` [Compound I-165]: the EC50 is < 50 nM.
As for `CC(C)n1cnnc1-c1cccc(NC(=O)Nc2cccc(N3CCCC3)n2)n1` [Compound I-166], the half-maximal effective concentration (EC50) was 50 to 500 nM.
On to `CC(C)n1cnnc1-c1cccc(NC(=O)Nc2cc(N3CCCC3)ccn2)n1` [Compound I-167], for which the EC50 was < 50 nM.
As for `CC(C)n1cnnc1-c1cccc(NC(=O)Nc2ccc(-n3ccnc3)cn2)n1` [Compound I-168], the EC50 fell in the range of 50 to 500 nM.
On to `CC(C)n1cnnc1-c1cccc(NC(=O)Nc2ccc(-n3cnc(C4CC4)c3)cn2)n1` [Compound I-169], for which the EC50 was < 50 nM.
The figure for `CC(C)n1cnnc1-c1cccc(NC(=O)Nc2cc(-n3cnc(C4CC4)c3)ccn2)n1` [Compound I-170] is < 50 nM; for `CC(C)n1cnnc1-c1cccc(NC(=O)Nc2cccc(-c3nncn3C(C)C)n2)n1` [Compound I-171] it is 50 to 500 nM.
For `CC(C)n1cnnc1-c1cccc(NC(=O)Nc2ncccc2I)n1` [Compound I-172], the EC50 is < 50 nM.
Turning to `CC(C)n1cnnc1-c1cccc(NC(=O)Nc2cc(I)ccn2)n1` [Compound I-173], the EC50 is < 50 nM.
For the compound `CC(C)n1cnnc1-c1cccc(NC(=O)Nc2ccc(I)cn2)n1` [Compound I-174], the EC50 was < 50 nM.
Turning to `CC(C)n1cnnc1-c1cccc(NC(=O)Nc2cc([N+](=O)[O-])ccn2)n1` [Compound I-175], the EC50 was < 50 nM.
Turning to `CC(C)n1cnnc1-c1cccc(NC(=O)Nc2ncccc2Br)n1` [Compound I-176], the 50% effective concentration (EC50) is < 50 nM.
The same measure for `CC(C)n1cnnc1-c1cccc(NC(=O)Nc2cc(Br)ccn2)n1` [Compound I-177]: < 50 nM.
On to `CC(C)n1cnnc1-c1cccc(NC(=O)Nc2ccc(Br)cn2)n1` [Compound I-178], for which the 50% effective concentration (EC50) is < 50 nM.
As for `CC(C)n1cnnc1-c1cccc(NC(=O)Nc2cccc(Br)n2)n1` [Compound I-179], the EC50 was < 50 nM.
As to `CC(C)n1cnnc1-c1cccc(NC(=O)Nc2ncccc2Cl)n1` [Compound I-180], the concentration giving a half-maximal response (EC50) was < 50 nM.
For `CC(C)n1cnnc1-c1cccc(NC(=O)Nc2cc(Cl)ccn2)n1` [Compound I-181], the EC50 was < 50 nM.
The same measure for `C[C@H](CO)n1cnnc1-c1cccc(NC(=O)Nc2cc(Cl)ccn2)n1` [Compound I-182]: < 50 nM; for `C[C@@H](CO)n1cnnc1-c1cccc(NC(=O)Nc2cc(Cl)ccn2)n1` [Compound I-183]: < 50 nM.
In the case of `CC(C)n1cnnc1-c1cccc(NC(=O)Nc2ccc(Cl)cn2)n1` [Compound I-184], the half-maximal effective concentration (EC50) is < 50 nM.
Take `CC(C)n1cnnc1-c1cccc(NC(=O)Nc2cccc(Cl)n2)n1` [Compound I-185]: the concentration for a half-maximal effect (EC50) is < 50 nM.
The figure for `CC(C)n1cnnc1-c1cccc(NC(=O)Nc2ncccc2F)n1` [Compound I-186] is < 50 nM; for `CC(C)n1cnnc1-c1cccc(NC(=O)Nc2cc(F)ccn2)n1` [Compound I-187] it is < 50 nM; for `CC(C)n1cnnc1-c1cccc(NC(=O)Nc2ccc(F)cn2)n1` [Compound I-188] it is < 50 nM.
As to `CNc1ccc(NC(=O)Nc2cccc(-c3nncn3C(C)C)n2)nc1` [Compound I-189], the concentration for a half-maximal effect (EC50) was < 50 nM.
Turning to `CNc1ccnc(NC(=O)Nc2cccc(-c3nncn3C(C)C)n2)c1` [Compound I-190], the concentration giving a half-maximal response (EC50) is < 50 nM.
In the case of `CC(C)n1cnnc1-c1cccc(NC(=O)Nc2ccc(N(C)C)cn2)n1` [Compound I-191], the 50% effective concentration (EC50) was < 50 nM.
Consider `CC(C)n1cnnc1-c1cccc(NC(=O)Nc2cc(N(C)C)ccn2)n1` [Compound I-192], for which the concentration giving a half-maximal response (EC50) was < 50 nM.
